Paper PMC6457190, “Tridecaptin-inspired antimicrobial peptides with activity against multidrug-resistant Gram-negative bacteria” (MedChemComm, 2019)
Where a SMILES comes first, the peptide text is derived from it. [ ]: non-standard residue; d: D form. The star is where a group is joined. dOrn = NCCC[C@@H](N)C(=O)O; dDab = NCC[C@@H](N)C(=O)O; Octanoyl = CCCCCCCC(=O)*; Orn = NCCC[C@H](N)C(=O)O; Dab = NCC[C@H](N)C(=O)O

What was measured:
[1] = test system: A. baumannii ACM 29; type: cell-based, Acinetobacter baumannii; conditions: ACM 29, 18 h
Procedure: (§1) IV. Antimicrobial testing
(§2) All minimum inhibitory concentrations (MICs) were determined according to Clinical and Standards Laboratory Institute (CLSI) guidelines. Briefly, peptides were dissolved in Muller-Hinton Broth (MHB) and serial dilutions made across a 96 well plate. Each well was inoculated with a suspension of the required bacterial strain to reach a final inoculum of 5 x 10^5 colony forming units per mL. The MIC was taken as the lowest concentration with no visible growth after 18 hours.
V. Additional information on multidrug resistant strains […]
Organism Resistant Susceptible […]
(§3) Acinetobacter baumannii ACM 29 Ceftazimide
(§4) Isolated from peritoneum of 3-year- Imipenem

[2] = test system: A. baumannii; type: cell-based, Acinetobacter baumannii; conditions: 18 h
Procedure: as §1, §2
(§5) V. Additional information on multidrug resistant strains
(§6) Organism Resistant Susceptible
Acinetobacter baumannii Cefotaxime Imipenem
Isolated from sewage contaminated Tetracycline Colistin water (Tripoli, Lebanon). Ofloxacin Tobramycin
(§7) Acinetobacter baumannii ACM 11 Ceftazimide
as §3, §4

[3] = test system: P. pseudoalcaligenes; type: cell-based, Pseudomonas pseudoalcaligenes; conditions: 18 h
Procedure: as §1, §2

[4] = test system: K. pneumoniae strains; experiment: MIC; type: cell-based, Klebsiella pneumoniae; conditions: against the K. pneumoniae strains
From the text: (§8) We next proceeded to replace the D-Dab and L-Dab residues, found at positions 2 and 8, and 7 respectively. […] It was previously shown that D-Dab8 is essential for antimicrobial activity,[18] and an experimentally derived model of Oct-TriA1 bound to its cellular receptor, the peptidoglycan intermediate lipid II, supports this observation.[12] Therefore we first prepared peptides in which only the amino acids at positions 2 and 7 were substituted with Lys or Orn (D/L configuration retained). […] Finally, the Lys/Orn substitutions at the 2, 7 and 8 positions were also incorporated into TriA2 analogues, yielding Oct-TriA2 (2,8-D-Orn, 7-Orn) (7) and Oct-TriA2 (2,8-D-Lys, 7-Lys) (8).
(§9) MilliQ water and solvent B = 0.1 % TFA in ACN. A gradient method was employed, starting from 20 % B and 80 % A for 2 min, ramping up to 95 % B over 18 min, ramping down to 20 % B over 0.1 min before staying at 20 % B for 3.9 min. High resolution mass spectrometry (HRMS) spectra of all peptides were recorded by Analytical Services and Environmental Projects (ASEP) at Queen’s University Belfast on a Waters LCT Premier ToF mass spectrometer using the electrospray ionisation (ESI) technique.
as §1
(§10) All minimum inhibitory concentrations (MICs) were determined according to Clinical and Standards Laboratory Institute (CLSI) guidelines. […]

[5] = test system: Equine erythrocytes; type: cell-based, horse; conditions: red cells of equine, 100 μg mL^–1
Procedure: Having assessed the antimicrobial activity of peptides 1–8 we next proceeded to assess their haemolytic activities (Table 2). Haemolytic activity was tested at 100 μg mL^–1, as the concentration required for haemolysis should be higher than antimicrobial MICs. Equine erythrocytes were exposed to peptides 1–8 and incubated for 30 min at 37 °C (Table 2). […] The low haemolytic activity observed for Oct-TriA2 (2,8-D-Lys, 7-Lys) (8) is consistent with its poor antimicrobial activity. […]
VI. Haemolytic activity assays
A 96-well plate was first prepared to contain phosphate-buffered saline (PBS) solutions (100 μL) of tridecaptin analogues 1 – 8 (200 μg/mL) (experiments run in triplicate). 0.1 % Triton X-100 (100 μL) was used as a positive control, while PBS (100 μL) was used as a blank. After the plate had been prepared, defibrinated horse blood (0.5 mL, VWR International) was diluted with phosphate-buffered saline (9.5 mL) and gently shaken. The resulting mixture was centrifuged (5600 rpm, 5 min) using a Thermo Scientific Heraeus Labofuge 200 centrifuge and the supernatant carefully removed. This process was repeated three more times to remove any free hemoglobin. The resulting erythrocyte pellet was gently resuspended in 9.5 mL of PBS. Aliquots of the resulting mixture (100 μL) were added to the appropriate wells on the 96-well plate using a multichannel pipette and the plate incubated at 37 °C for 30 min. The samples were gently mixed by pipetting, and 20 μL of each was added to 200 μL of PBS. Once again, the samples were gently mixed. The diluted samples were then centrifuged (7000 rpm, 5 min) using a SciSpin MINI Microfuge. Supernatant (150 μL) from each sample was added to a new 96-well plate. The absorbance of each sample was individually measured at 415 nm using a Denovix DS-11 FX+ Spectrophotometer. Percent hemolysis of the peptides was calculated relative to Triton X- 100, while the PBS negative control was used as a blank.

[6] = test system: E. cloacae; type: cell-based, Enterobacter cloacae; conditions: 18 h
Procedure: as §1, §2

[7] = test system: A. baumannii ACM 11; type: cell-based, Acinetobacter baumannii; conditions: ACM 11, 18 h
Procedure: as §1, §2, §5, §6, §7

[8] = test system: A. baumannii strains; experiment: MIC; type: cell-based, Acinetobacter baumannii; conditions: against the A. baumannii strains
From the text: as §8, §9, §1, §10

[9] = test system: K. pneumoniae IMP 177; type: cell-based, Klebsiella pneumoniae; conditions: IMP 177, 18 h
Procedure: as §1, §2

[10] = test system: K. pneumoniae IMP 216; type: cell-based, Klebsiella pneumoniae; conditions: IMP 216, 18 h
Procedure: as §1, §2

[11] = test system: K. pneumoniae IMP 485; type: cell-based, Klebsiella pneumoniae; conditions: IMP 485, 18 h
Procedure: as §1, §2

[12] = test system: K. pneumoniae IMP 204; type: cell-based, Klebsiella pneumoniae; conditions: IMP 204, 18 h
Procedure: as §1, §2

[13] = test system: K. pneumoniae IMP 170; type: cell-based, Klebsiella pneumoniae; conditions: IMP 170, 18 h
Procedure: as §1, §2

[14] = test system: K. pneumoniae; type: cell-based, Klebsiella pneumoniae; conditions: 18 h
Procedure: as §1, §2

[15] = test system: K. pneumoniae and E. cloacae strains; type: cell-based, Klebsiella pneumoniae, Enterobacter cloacae; conditions: 18 h
Procedure: The first amino acid substitution we explored was replacement of D-allo-Ile12 with D-Val, which occurs in natural TriA2 variants. Fmoc-D-Val is ∼30 times less expensive than Fmoc-D-allo-Ile (according to Fluorochem pricing). […] The minimum inhibitory concentrations (MICs) of Oct-TriA1 against K. pneumoniae and E. cloacae strains were typically 6.25 μg mL^–1 but […] against carbapenemase-producing A. baumannii strains (25 μg mL^–1).
as §9, §1
All minimum inhibitory concentrations (MICs) were determined according to Clinical and Standards Laboratory Institute (CLSI) guidelines. Briefly, peptides were dissolved in Muller-Hinton Broth (MHB) and serial dilutions made across a 96 well plate. Each well was inoculated with a suspension of the required bacterial strain to reach a final inoculum of 5 x 10^5 colony forming units per mL. […]

[16] = test system: panel of Gram-negative bacteria; experiment: MIC, summary over the panel of strains; type: cell-based; conditions: against most strains tested
From the text: Previous studies have shown that the tridecaptins have strong activity against clinically relevant Gram-negative strains.[8],[14] This includes A. baumannii and Enterobacteriaceae such as Klebsiella pneumoniae and Enterobacter spp., however P. aeruginosa is less susceptible. The World Health Organization (WHO) currently lists carbapenemase-producing strains of these Gram-negative bacteria as critical priority pathogens. We therefore decided to synthesize a library of novel tridecaptin analogues containing conservative substitutions at positions 2, 7, 8 and/or 12, and evaluate their activity against a panel of these strains (Table 1). This panel of Gram-negative bacteria contains environmental samples isolated from sewage contaminated water in Lebanon, as well as several strains isolated from patients at clinical settings. […]
MilliQ water and solvent B = 0.1 % TFA in ACN. […] High resolution mass spectrometry (HRMS) spectra of all peptides were recorded by Analytical Services and Environmental Projects (ASEP) at Queen’s University Belfast on a Waters LCT Premier ToF mass spectrometer using the electrospray ionisation (ESI) technique. […]
as §10

CCCCCCCC(=O)N[C@@H](C(=O)N[C@H](CCCN)C(=O)NCC(=O)N[C@H](CO)C(=O)N[C@H](Cc1c[nH]c2ccccc12)C(=O)N[C@@H](CO)C(=O)N[C@@H](CCCN)C(=O)N[C@H](CCCN)C(=O)N[C@@H](Cc1ccccc1)C(=O)N[C@@H](CCC(=O)O)C(=O)N[C@H](C(=O)N[C@@H](C(=O)N[C@@H](C)C(=O)O)C(C)C)C(C)C)C(C)C [Peptide 7, Oct-TriA2 (2,8-D-Orn, 7-Orn)] (Octanoyl-[dV][dOrn]G[dS][dW]S[Orn][dOrn]FEV[dV]A-OH)
Peptide MIC [1]: 50 μg mL^–1
Peptide MIC [2]: 25 μg mL^–1
Peptide MIC [3]: 6.25 μg mL^–1
antimicrobial activity relative to Oct-TriA1 [4]: two- to four-fold less active
% haemolysis [5]: 39.8%
Peptide MIC [6]: 12.5 μg mL^–1
Peptide MIC [7]: 25 μg mL^–1
antimicrobial activity relative to Oct-TriA1 [8]: comparable activity
Peptide MIC [9]: 12.5 μg mL^–1
Peptide MIC [10]: 12.5 μg mL^–1
Peptide MIC [11]: 12.5 μg mL^–1
Peptide MIC [12]: 12.5 μg mL^–1
Peptide MIC [13]: 25 μg mL^–1
Peptide MIC [14]: 50 μg mL^–1

CCCCCCCC(=O)N[C@@H](C(=O)N[C@H](CCN)C(=O)NCC(=O)N[C@H](CO)C(=O)N[C@H](Cc1c[nH]c2ccccc12)C(=O)N[C@@H](CO)C(=O)N[C@@H](CCN)C(=O)N[C@H](CCN)C(=O)N[C@@H](Cc1ccccc1)C(=O)N[C@@H](CCC(=O)O)C(=O)N[C@H](C(=O)N[C@@H](C(=O)N[C@@H](C)C(=O)O)[C@@H](C)CC)C(C)C)C(C)C [Peptide 1, Oct-TriA1, reference compound]
Peptide MIC [1]: 25 μg mL^–1
Peptide MIC [2]: 12.5 μg mL^–1
Peptide MIC [3]: 50 μg mL^–1
minimum inhibitory concentrations (MICs), typical value [15]: ~6.25 μg mL^–1
% haemolysis [5]: 89.6%
Peptide MIC [6]: 3.13 μg mL^–1
Peptide MIC [7]: 25 μg mL^–1
Peptide MIC [9]: 6.25 μg mL^–1
Peptide MIC [10]: 6.25 μg mL^–1
Peptide MIC [11]: 6.25 μg mL^–1
Peptide MIC [12]: 12.5 μg mL^–1
Peptide MIC [13]: 6.25 μg mL^–1
Peptide MIC [14]: 6.25 μg mL^–1

CCCCCCCC(=O)N[C@@H](C(=O)N[C@H](CCN)C(=O)NCC(=O)N[C@H](CO)C(=O)N[C@H](Cc1c[nH]c2ccccc12)C(=O)N[C@@H](CO)C(=O)N[C@@H](CCN)C(=O)N[C@H](CCN)C(=O)N[C@@H](Cc1ccccc1)C(=O)N[C@@H](CCC(=O)O)C(=O)N[C@H](C(=O)N[C@@H](C(=O)N[C@@H](C)C(=O)O)C(C)C)C(C)C)C(C)C [Peptide 2, Oct-TriA2] (Octanoyl-[dV][dDab]G[dS][dW]S[Dab][dDab]FEV[dV]A-OH)
Peptide MIC [1]: 50 μg mL^–1
Peptide MIC [2]: 25 μg mL^–1
Peptide MIC [3]: 50 μg mL^–1
% haemolysis [5]: 52.1%
Peptide MIC [6]: 6.25 μg mL^–1
Peptide MIC [7]: 100 μg mL^–1
Peptide MIC [9]: 25 μg mL^–1
Peptide MIC [10]: 12.5 μg mL^–1
Peptide MIC [11]: 12.5 μg mL^–1
Peptide MIC [12]: 12.5 μg mL^–1
Peptide MIC [13]: 12.5 μg mL^–1
Peptide MIC [14]: 12.5 μg mL^–1
antimicrobial activity relative to Oct-TriA1 (1) [16]: two- to four-fold less active
